The results in this text go back to patent US20230295182A1, “SPIRO DERIVATIVES OF ALPHA-D-GALACTOPYRANOSIDES” (Idorsia Pharmaceuticals Ltd, priority 2020, published 2023).

The target of experiment [1] is human Gal-3 (hGal-3) (Homo sapiens (Human), UniProt P17931). Kind of experiment: Competitive binding assay: biotinylated hGal-3 to microplate-adsorbed asialofetuin (ASF). To be noted: Activity on hGal-3; binding to ASF-coated plates, 3 hours at 4° C.; mean values. The procedure:
Evaluation of Compound Inhibitory Activity (IC50)
The inhibitory activity of compounds is determined in competitive binding assays. This spectrophotometric assay measures the binding of biotinylated human Gal-3 (hGal-3) or human Gal-1 (hGal-1), respectively, to a microplate-adsorbed glycoprotein, asialofetuin (ASF) (Proc Natl Acad Sci USA. 2013 Mar. 26; 110(13):5052-7.). Alternatively, and preferably, a human Gal-1 version in which all six cysteines are substituted by serines may be used.
Briefly, compounds are serially diluted in DMSO (working dilutions). ASF-coated 384 well plates are supplemented with 22.8 μL/well of biotinylated hGal-3 or hGal-1 in assay buffer (i.e. 300-1000 ng/mL biotinylated hGal-3 or hGal-1) to which 1.2 µL of compound working dilutions are added and mixed.
Plates are incubated for 3 hours at 4° C., then washed with cold assay buffer (3×50 uL), incubated for 1 hour with 25 μL/well of a streptavidin-peroxidase solution (diluted in assay buffer to 80 ng/mL) at 4° C., followed by further washing steps with assay buffer (3×50 uL). Finally, 25 µL/well of ABTS substrate is added.
The calculated IC50 values may fluctuate depending on the daily assay performance. Fluctuations of this kind are known to those skilled in the art. IC50 values from several measurements are given as mean values.

Experiment [2] addresses human Gal-1 (hGal-1) (Homo sapiens, UniProt P09382). Kind of experiment: Competitive binding assay: biotinylated hGal-1 to microplate-adsorbed asialofetuin (ASF). The procedure: Evaluation of Compound Inhibitory Activity (IC50) The inhibitory activity of compounds is determined in competitive binding assays. […] Alternatively, and preferably, a human Gal-1 version in which all six cysteines are substituted by serines may be used. Briefly, compounds are serially diluted in DMSO (working dilutions). […] Plates are incubated for 3 hours at 4° C., then washed with cold assay buffer (3×50 uL), incubated for 1 hour with 25 μL/well of a streptavidin-peroxidase solution (diluted in assay buffer to 80 ng/mL) at 4° C., followed by further washing steps with assay buffer (3×50 uL). Finally, 25 µL/well of ABTS substrate is added. […] The calculated IC50 values may fluctuate depending on the daily assay performance. Fluctuations of this kind are known to those skilled in the art. IC50 values from several measurements are given as mean values.

The mark [3] stands for this setting: Activities on hGal-1; binding to ASF-coated plates, 3 hours at 4° C.; mean values; read-out: Gal-1 IC50.

SMILES strings stand for the structures. Where two headings read alike, the source gives them in different places.

Sequence of human Gal-3 (hGal-3) (P17931 whole entry): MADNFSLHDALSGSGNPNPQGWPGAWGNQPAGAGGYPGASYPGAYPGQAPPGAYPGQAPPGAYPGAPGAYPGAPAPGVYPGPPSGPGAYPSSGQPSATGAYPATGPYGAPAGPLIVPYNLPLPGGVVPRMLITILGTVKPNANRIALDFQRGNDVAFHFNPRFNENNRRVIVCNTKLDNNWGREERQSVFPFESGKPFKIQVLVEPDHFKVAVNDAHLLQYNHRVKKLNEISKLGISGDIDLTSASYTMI
Sequence of human Gal-1 (hGal-1) (P09382 2-135 limits assumed): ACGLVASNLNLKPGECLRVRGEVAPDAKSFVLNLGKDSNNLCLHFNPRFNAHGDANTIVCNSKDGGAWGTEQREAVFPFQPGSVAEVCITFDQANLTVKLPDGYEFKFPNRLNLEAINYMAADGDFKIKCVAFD

Usually IC50 stands for the concentration that gives 50% inhibition. Turning to `CO[C@@H]1[C@@H](n2cc(-c3ccc(C)c(F)c3F)nn2)[C@@H](O)[C@@H](CO)O[C@@H]1CC1=NOC2(CCCN(C(=O)OC(C)(C)C)CC2)C1` (mixture of isomers) [Example 1.75, tert-butyl (RS)-3-(((2R,3R,4S,5R,6R)-4-(4-(2,3-difluoro-4-methylphenyl)-1H-1,2,3-triazol-1-yl)-5-hydroxy-6-(hydroxymethyl)-3-methoxytetrahydro-2H-pyran-2-yl)methyl)-1-oxa-2,8-diazaspiro[4.6]undec-2-ene-8-carboxylate], the IC50 in experiment [1] was determined as 160 nM; in experiment [2] (setting [3]), 8200 nM.
The corresponding values for `CO[C@@H]1[C@@H](n2cc(-c3ccc(C)c(F)c3F)nn2)[C@@H](O)[C@@H](CO)O[C@@H]1CC1=NOC2(CCC(=O)N(C)CC2)C1` (mixture of isomers) [Example 1.77, (RS)-3-(((2R,3R,4S,5R,6R)-4-(4-(2,3-difluoro-4-methylphenyl)-1H-1,2,3-triazol-1-yl)-5-hydroxy-6-(hydroxymethyl)-3-methoxytetrahydro-2H-pyran-2-yl)methyl)-8-methyl-1-oxa-2,8-diazaspiro[4.6]undec-2-en-9-one] are 100 nM and 4800 nM.
The corresponding values for `CO[C@@H]1[C@@H](n2cc(-c3ccc(Cl)c(F)c3F)nn2)[C@@H](O)[C@@H](CO)O[C@@H]1CC1=NOC2(C1)C[C@@H](C(=O)O)N(C(=O)OC(C)(C)C)C2` (mixture of isomers) [Example 1.78, (5RS,8S)-7-(tert-butoxycarbonyl)-3-(((2R,3R,4S,5R,6R)-4-(4-(4-chloro-2,3-difluorophenyl)-1H-1,2,3-triazol-1-yl)-5-hydroxy-6-(hydroxymethyl)-3-methoxytetrahydro-2H-pyran-2-yl)methyl)-1-oxa-2,7-diazaspiro[4.4]non-2-ene-8-carboxylic acid] are 270 nM and 12000 nM.
For `CO[C@@H]1[C@@H](n2cc(-c3ccc(Cl)c(F)c3F)nn2)[C@@H](O)[C@@H](CO)O[C@@H]1CC1=NOC2(CCN(C(=O)OC(C)(C)C)C2)C1` (mixture of isomers) [Example 1.79, tert-butyl (RS)-3-(((2R,3R,4S,5R,6R)-4-(4-(4-chloro-2,3-difluorophenyl)-1H-1,2,3-triazol-1-yl)-5-hydroxy-6-(hydroxymethyl)-3-methoxytetrahydro-2H-pyran-2-yl)methyl)-1-oxa-2,7-diazaspiro[4.4]non-2-ene-7-carboxylate], in that order: 490 nM and 4800 nM.
Turning to `CO[C@@H]1[C@@H](n2cc(-c3ccc(C)c(F)c3F)nn2)[C@@H](O)[C@@H](CO)O[C@@H]1CC1=NOC2(CCNC(=O)CC2)C1` (mixture of isomers) [Example 1.76], the values for the IC50 in experiment [1] and in experiment [2] (setting [3]) were 110 nM and 2700 nM, respectively.
For `CC(=O)O[C@@H]1[C@@H](n2cc(-c3ccc(C)c(F)c3F)nn2)[C@@H](O)[C@@H](CO)O[C@@H]1CC1=NOC2(CCOCC2)C1` [Example 1.01, (2R,3R,4S,5R,6R)-2-((1,8-dioxa-2-azaspiro[4.5]dec-2-en-3-yl)methyl)-4-(4-(2,3-difluoro-4-methylphenyl)-1H-1,2,3-triazol-1-yl)-5-hydroxy-6-(hydroxymethyl)tetrahydro-2H-pyran-3-yl acetate], in that order: 61 nM and 4200 nM.
The corresponding values for `Cc1ccc(-c2cn([C@H]3[C@@H](O)[C@@H](CO)O[C@H](CC4=NOC5(CCOCC5)C4)[C@@H]3O)nn2)c(F)c1F` [Example 1.02, (2R,3R,4R,5R,6R)-2-((1,8-dioxa-2-azaspiro[4.5]dec-2-en-3-yl)methyl)-4-(4-(2,3-difluoro-4-methylphenyl)-1H-1,2,3-triazol-1-yl)-6-(hydroxymethyl)tetrahydro-2H-pyran-3,5-diol] are 84 nM and 5200 nM.
For `CC(=O)O[C@@H]1[C@@H](n2cc(-c3ccc(C)c(F)c3F)nn2)[C@@H](O)[C@@H](CO)O[C@@H]1CC1=NOC2(CCC(F)(F)CC2)C1` [Example 1.03, (2R,3R,4S,5R,6R)-2-((8,8-difluoro-1-oxa-2-azaspiro[4.5]dec-2-en-3-yl)methyl)-4-(4-(2,3-difluoro-4-methylphenyl)-1H-1,2,3-triazol-1-yl)-5-hydroxy-6-(hydroxymethyl)tetrahydro-2H-pyran-3-yl acetate], in that order: 79 nM and above 100000 nM.
On to `Cc1ccc(-c2cn([C@H]3[C@@H](O)[C@@H](CO)O[C@H](CC4=NOC5(CCC(F)(F)CC5)C4)[C@@H]3O)nn2)c(F)c1F` [Example 1.04, (2R,3R,4R,5R,6R)-2-((8,8-difluoro-1-oxa-2-azaspiro[4.5]dec-2-en-3-yl)methyl)-4-(4-(2,3-difluoro-4-methylphenyl)-1H-1,2,3-triazol-1-yl)-6-(hydroxymethyl)tetrahydro-2H-pyran-3,5-diol], for which the IC50 in experiment [1] is 170 nM; in experiment [2] (setting [3]) it was 10400 nM.
Consider `OC[C@H]1O[C@H](CC2=NOC3(CCCCC3)C2)[C@H](O)[C@@H](n2cc(-c3cc(F)c(F)c(F)c3)nn2)[C@H]1O` [Example 1.05, (2R,3R,4R,5R,6R)-2-((1-oxa-2-azaspiro[4.5]dec-2-en-3-yl)methyl)-6-(hydroxymethyl)-4-(4-(3,4,5-trifluorophenyl)-1H-1,2,3-triazol-1-yl)tetrahydro-2H-pyran-3,5-diol], for which the IC50 in experiment [1] amounted to 280 nM; in experiment [2] (read-out: Gal-1 IC50; Activities on hGal-1; binding to ASF-coated plates, 3 hours at 4° C.; mean values), 2200 nM.
As to `CO[C@@H]1[C@@H](n2cc(-c3cc(F)c(F)c(F)c3)nn2)[C@@H](O)[C@@H](CO)O[C@@H]1CC1=NOC2(CCN(C(=O)OC(C)(C)C)CC2)C1` [Example 1.06, tert-butyl 3-(((2R,3R,4S,5R,6R)-5-hydroxy-6-(hydroxymethyl)-3-methoxy-4-(4-(3,4,5-trifluorophenyl)-1H-1,2,3-triazol-1-yl)tetrahydro-2H-pyran-2-yl)methyl)-1-oxa-2,8-diazaspiro[4.5]dec-2-ene-8-carboxylate], the IC50 in experiment [1] was found to be 340 nM; in experiment [2] (setting [3]), 4200 nM.
For `CO[C@@H]1[C@@H](n2cc(-c3cc(F)c(F)c(F)c3)nn2)[C@@H](O)[C@@H](CO)O[C@@H]1CC1=NOC2(CCNCC2)C1` [Example 1.07, (2R,3R,4S,5R,6R)-6-((1-oxa-2,8-diazaspiro[4.5]dec-2-en-3-yl)methyl)-2-(hydroxymethyl)-5-methoxy-4-(4-(3,4,5-trifluorophenyl)-1H-1,2,3-triazol-1-yl)tetrahydro-2H-pyran-3-ol], in that order: 320 nM and 5700 nM.
The corresponding values for `CO[C@@H]1[C@@H](n2cc(-c3cc(F)c(F)c(F)c3)nn2)[C@@H](O)[C@@H](CO)O[C@@H]1CC1=NOC2(CCCCC2)C1` [Example 1.08, (2R,3R,4S,5R,6R)-6-((1-oxa-2-azaspiro[4.5]dec-2-en-3-yl)methyl)-2-(hydroxymethyl)-5-methoxy-4-(4-(3,4,5-trifluorophenyl)-1H-1,2,3-triazol-1-yl)tetrahydro-2H-pyran-3-ol] are 240 nM and 1900 nM.
As to `CO[C@@H]1[C@@H](n2cc(-c3cc(F)c(F)c(F)c3)nn2)[C@@H](O)[C@@H](CO)O[C@@H]1CC1=NOC2(CCC(C)CC2)C1` (stereo partly drawn) [Example 1.30, (2R,3R,4S,5R,6R)-2-(hydroxymethyl)-5-methoxy-6-((8-methyl-1-oxa-2-azaspiro[4.5]dec-2-en-3-yl)methyl)-4-(4-(3,4,5-trifluorophenyl)-1H-1,2,3-triazol-1-yl)tetrahydro-2H-pyran-3-ol], the IC50 in experiment [2] (setting [3]) turned out to be 3100 nM.
Same read-out and setting: to `OC[C@H]1O[C@H](CC2=NOC3(CCCCC3)C2)[C@H](OCC(F)F)[C@@H](n2cc(-c3cc(F)c(F)c(F)c3)nn2)[C@H]1O` [Example 1.67, (2R,3R,4S,5R,6R)-6-((1-oxa-2-azaspiro[4.5]dec-2-en-3-yl)methyl)-5-(2,2-difluoroethoxy)-2-(hydroxymethyl)-4-(4-(3,4,5-trifluorophenyl)-1H-1,2,3-triazol-1-yl)tetrahydro-2H-pyran-3-ol] belongs 2900 nM; to `CO[C@@H]1[C@@H](n2cc(-c3ccc(C)c(F)c3F)nn2)[C@@H](O)[C@@H](CO)O[C@@H]1CN1CC2(CCCCC2)NC1=O` [Example 4.01, 3-(((2R,3R,4S,5R,6R)-4-(4-(2,3-difluoro-4-methylphenyl)-1H-1,2,3-triazol-1-yl)-5-hydroxy-6-(hydroxymethyl)-3-methoxytetrahydro-2H-pyran-2-yl)methyl)-1,3-diazaspiro[4.5]decan-2-one], 1300 nM.
